In one series the test system is Poliovirus 3. As to the kind of experiment: microbe, parasite or virus in culture. The format is cell-based. Conditions: Enterovirus C, read-out: Poliovirus3 EC50.
A short description of another series: in vitro. Conditions: human.

Values after ≈ are worked out from the molar mass of the structure shown.

One may read the EC50 as the concentration needed to bring the measured effect to its halfway point.

Take `CC(C)c1ccc2c(c1)OC1(O)c3cccc(N)c3C(=O)C21NC(=O)c1nc2ccccc2[nH]1` (centres unmarked) [Example 290, N-(1-Amino-4b-hydroxy-7-isopropyl-10-oxo-9b,10-dihydro-4bH-indeno[1,2-b]benzofuran-9b-yl)-1H-benzo[d]imidazole-2-carboxamide]: the EC50 in the series on Poliovirus 3 came out at 0.032 µg/mL (≈ 0.0704 µM). The CC50 amounted to 4.51 µg/mL (≈ 9.92 µM) in “in vitro” and 4.32 µg/mL (≈ 9.51 µM) in “in vitro” (Picorana CC50).

Consider `CC(C)c1ccc2c(c1)OC1(O)c3cccc(N)c3C(=O)C21NC(=O)c1cc2ccccc2c(=O)[nH]1` (centres unmarked) [Example 286, N-(1-Amino-4b-hydroxy-7-isopropyl-10-oxo-9b,10-dihydro-4bH-indeno[1,2-b]benzofuran-9b-yl)-1-oxo-1,2-dihydroisoquinoline-3-carboxamide], for which the EC50 in the series with Poliovirus 3 was < 0.01 µg/mL. In addition, the CC50 stood at 4.04 µg/mL (≈ 8.39 µM) in the series “in vitro” and 4.28 µg/mL (≈ 8.89 µM) in the series “in vitro” (Picorana CC50).

`CCC(=O)NC12C(=O)c3c(N)cccc3C1(O)Oc1cc(C(C)C)ccc12` (centres unmarked) [Example 143, N-(1-Amino-4b-hydroxy-7-isopropyl-10-oxo-9b,10-dihydro-4bH-indeno[1,2-b]benzofuran-9b-yl)propionamide]: the EC50 in the series with Poliovirus 3 is < 0.01 µg/mL. For the same compound, the CC50 in “in vitro” was 58.1 µg/mL (≈ 158 µM); in the series “in vitro” (Picorana CC50), > 50 µg/mL.

For the compound `CC(C)c1ccc2c(c1)OC1(O)c3cccc(N)c3C(=O)C21NC(=O)c1cnnc2ccccc12` (centres unmarked) [Example 238, N-(1-Amino-4b-hydroxy-7-isopropyl-10-oxo-9b,10-dihydro-4bH-benzo[d]indeno[1,2-b]furan-9b-yl)cinnoline-4-carboxamide], the EC50 in the series on Poliovirus 3 was < 0.01 µg/mL. Also, the CC50 is > 10 µg/mL in the series “in vitro” and 8.33 µg/mL (≈ 17.9 µM) in “in vitro” (Picorana CC50).

With `CC(C)c1ccc2c(c1)OC1(O)c3cccc(N)c3C(=O)C21NC(=O)c1cnccn1` (centres unmarked) [Example 200, N-(1-Amino-4b-hydroxy-7-isopropyl-10-oxo-9b,10-dihydro-4bH-indeno[1,2-b]benzofuran-9b-yl) pyrazine-2-carboxamide], the EC50 with Poliovirus 3 is < 0.01 µg/mL. Further, the CC50 in the series “in vitro” is > 10 µg/mL.

For `Cc1ncsc1C(=O)NC12C(=O)c3c(N)cccc3C1(O)Oc1cc(C(C)C)ccc12` (centres unmarked) [Example 206, N-(1-Amino-4b-hydroxy-7-isopropyl-10-oxo-9b,10-dihydro-4bH-indeno[1,2-b]benzofuran-9b-yl)-4-methylthiazole-5-carboxamide], the EC50 with Poliovirus 3 is < 0.01 µg/mL. Further, the CC50 in “in vitro” was > 10 µg/mL.

As for `COc1cncc(C(=O)NC23C(=O)c4c(N)cccc4C2(O)Oc2cc(C(C)C)ccc23)c1` (centres unmarked) [Example 261, N-(1-Amino-4b-hydroxy-7-isopropyl-10-oxo-9b,10-dihydro-4bH-indeno[1,2-b]benzofuran-9b-yl)-5-methoxynicotinamide], the EC50 in the series with Poliovirus 3 was < 0.01 µg/mL. Besides, the CC50 in the series “in vitro” is > 10 µg/mL.

Take `CC(C)c1ccc2c(c1)OC1(O)c3cccc(N)c3C(=O)C21NC(=O)c1ccc2ccccc2n1` (centres unmarked) [Example 263]: the EC50 with Poliovirus 3 was 0.039 µg/mL (≈ 0.0838 µM). Moreover, the results for the CC50 in “in vitro” and in the series “in vitro” (Picorana CC50) were 5.4 µg/mL (≈ 11.6 µM) and 7.65 µg/mL (≈ 16.4 µM), respectively.

In the case of `CC(C)c1ccc2c(c1)OC1(O)c3cccc(N)c3C(=O)C21NC(=O)c1ccco1` (centres unmarked) [Example 201, N-(1-Amino-4b-hydroxy-7-isopropyl-10-oxo-9b,10-dihydro-4bH-indeno[1,2-b]benzofuran-9b-yl)furane-2-carboxamide], the EC50 in the series on Poliovirus 3 was < 0.01 µg/mL. The CC50 in “in vitro” is > 10 µg/mL.

Turning to `Cc1cccc(C(=O)NC23C(=O)c4c(N)cccc4C2(O)Oc2cc(C(C)C)ccc23)c1` (centres unmarked) [Example 187, N-(1-Amino-4b-hydroxy-7-isopropyl-10-oxo-9b,10-dihydro-4bH-benzo[d]indeno[1,2-b]furan-9b-yl)-3-methylbenzamide], in the series on Poliovirus 3, the EC50 is < 0.01 µg/mL. The CC50 is > 10 µg/mL in “in vitro” and 7.43 µg/mL (≈ 17.3 µM) in the series “in vitro” (Picorana CC50).

With `CC(C)c1ccc2c(c1)OC1(O)c3cccc(N)c3C(=O)C21NC(=O)c1cc2ccccc2[nH]1` (centres unmarked) [Example 265], the EC50 in the series with Poliovirus 3 is < 0.01 µg/mL. In addition, the CC50 in “in vitro” stood at 4.4 µg/mL (≈ 9.7 µM); in “in vitro” (Picorana CC50) it was 4.75 µg/mL (≈ 10.5 µM).

With `CC(C)c1ccc2c(c1)OC1(O)c3cccc(N)c3C(=O)C21NC(=O)c1ncccc1O` (centres unmarked) [Example 257, N-(1-Amino-4b-hydroxy-7-isopropyl-10-oxo-9b,10-dihydro-4bH-indeno[1,2-b]benzofuran-9b-yl)-3-hydroxypicolinamide], the EC50 with Poliovirus 3 is 0.031 µg/mL (≈ 0.0719 µM). Moreover, the CC50 in the series “in vitro” was > 10 µg/mL.

On to `CC(C)c1ccc2c(c1)OC1(O)c3cccc(N)c3C(=O)C21NC(=O)c1ccc2nccn2c1` (centres unmarked) [Example 272, N-(1-Amino-4b-hydroxy-7-isopropyl-10-oxo-9b,10-dihydro-4bH-indeno[1,2-b]benzofuran-9b-yl)imidazo[1,2-a]pyridine-6-carboxamide], for which the EC50 in the series with Poliovirus 3 is < 0.01 µg/mL. Further, the CC50 in “in vitro” was > 10 µg/mL.

On to `CC(C)c1ccc2c(c1)OC1(O)c3cccc(N)c3C(=O)C21NC(=O)c1nccc2ccccc12` (centres unmarked) [Example 266, N-(1-Amino-4b-hydroxy-7-isopropyl-10-oxo-9b,10-dihydro-4bH-benzo[d]indeno[1,2-b]furan-9b-yl)isoquinoline-1-carboxamide], for which the EC50 in the series with Poliovirus 3 was < 0.01 µg/mL. Further, the figures for the CC50 in “in vitro” and in the series “in vitro” (Picorana CC50) were > 10 µg/mL and 6.41 µg/mL (≈ 13.8 µM), respectively.

In the case of `CC(C)c1ccc2c(c1)OC1(O)c3cccc(N)c3C(=O)C21NC(=O)c1ccc[nH]1` (centres unmarked) [Example 233, N-(1-Amino-4b-hydroxy-7-isopropyl-10-oxo-9b,10-dihydro-4bH-indeno[1,2-b]benzofuran-9b-yl)-1H-pyrrole-2-carboxamide], in the series with Poliovirus 3, the EC50 was < 0.01 µg/mL. Besides, the CC50 is > 10 µg/mL in “in vitro” and 31.9 µg/mL (≈ 79 µM) in the series “in vitro” (Picorana CC50).

`CC(C)c1ccc2c(c1)OC1(O)c3cccc(N)c3C(=O)C21NC(=O)/C=C/c1ccc(Cl)c(Cl)c1` (centres unmarked) [Example 180]: the EC50 in the series with Poliovirus 3 stood at 0.033 µg/mL (≈ 0.0648 µM). For the same compound, the CC50 was > 10 µg/mL in “in vitro” and 4.32 µg/mL (≈ 8.48 µM) in the series “in vitro” (Picorana CC50).

`CC(C)c1ccc2c(c1)OC1(O)c3cccc(N)c3C(=O)C21NC(=O)c1cc2ncccn2n1` (centres unmarked) [Example 273, N-(1-Amino-4b-hydroxy-7-isopropyl-10-oxo-9b,10-dihydro-4bH-indeno[1,2-b]benzofuran-9b-yl)pyrazolo[1,5-a]pyrimidine-2-carboxamide]: the EC50 in the series on Poliovirus 3 is < 0.01 µg/mL. Moreover, the CC50 in “in vitro” was > 10 µg/mL.

For `CC(C)c1ccc2c(c1)OC1(O)c3cccc(N)c3C(=O)C21NC(=O)c1cncc(O)c1` (centres unmarked) [Example 256, N-(1-Amino-4b-hydroxy-7-isopropyl-10-oxo-9b,10-dihydro-4bH-indeno[1,2-b]benzofuran-9b-yl)-5-hydroxynicotinamide], the EC50 with Poliovirus 3 was < 0.01 µg/mL. Also, in “in vitro”, the CC50 is > 10 µg/mL.

Take `CC(C)c1ccc2c(c1)OC1(O)c3cccc(N)c3C(=O)C21NC(=O)C(=O)c1cccs1` (centres unmarked) [Example 231, N-(1-Amino4b-hydroxy-7-isopropyl-10-oxo-9b,10-dihydro-4bH-indeno[1,2-b]benzofuran-9b-yl)-2-oxo-2-(thiophen-2-yl)acetamide]: in the series with Poliovirus 3, the EC50 was < 0.01 µg/mL. Moreover, the CC50 was > 10 µg/mL in “in vitro” and 8.64 µg/mL (≈ 19.3 µM) in the series “in vitro” (Picorana CC50).

Consider `COc1ccccc1C(=O)NC12C(=O)c3c(N)cccc3C1(O)Oc1cc(C(C)C)ccc12` (centres unmarked) [Example 183, N-(1-Amino-4b-hydroxy-7-isopropyl-10-oxo-9b,10-dihydro-4bH-indeno[1,2-b]benzofuran-9b-yl)-2-methoxybenzamide], for which the EC50 in the series with Poliovirus 3 is 0.014 µg/mL (≈ 0.0315 µM). Moreover, the CC50 in the series “in vitro” is > 10 µg/mL; in “in vitro” (Picorana CC50), 8.54 µg/mL (≈ 19.2 µM).

In the case of `Cc1ccnc2nc(C(=O)NC34C(=O)c5c(N)cccc5C3(O)Oc3cc(C(C)C)ccc34)nn12` (centres unmarked) [Example 281, N-(1-Amino-4b-hydroxy-7-isopropyl-10-oxo-9b,10-dihydro-4bH-indeno[1,2-b]benzofuran-9b-yl)-7-methyl-[1,2,4]triazolo[1,5-a]pyrimidine-2-carboxamide], the EC50 with Poliovirus 3 was 0.025 µg/mL (≈ 0.0531 µM). Also, the CC50 in the series “in vitro” was > 10 µg/mL.

As for `CC(C)c1ccc2c(c1)OC1(O)c3cccc(N)c3C(=O)C21NC(=O)C1CC1` (centres unmarked) [Example 158, N-(1-Amino-4b-hydroxy-7-isopropyl-10-oxo-9b,10-dihydro-4bH-indeno[1,2-b]benzofuran-9b-yl)cyclopropanecarboxamide], the EC50 in the series on Poliovirus 3 is < 0.01 µg/mL. Moreover, the CC50 amounted to 39.4 µg/mL (≈ 104 µM) in “in vitro” and 44.7 µg/mL (≈ 118 µM) in “in vitro” (Picorana CC50).

On to `CC(C)c1ccc2c(c1)OC1(O)c3cccc(N)c3C(=O)C21NC(=O)C(F)(F)F` (centres unmarked) [Example 175, N-(1-Amino-4b-hydroxy-7-isopropyl-10-oxo-9b,10-dihydro-4bH-indeno[1,2-b]benzofuran-9b-yl)-2,2,2-trifluoroacetamide], for which the EC50 in the series with Poliovirus 3 is < 0.01 µg/mL. Besides, the results for the CC50 in “in vitro” and in the series “in vitro” (Picorana CC50) were > 10 µg/mL and > 11 µg/mL, respectively.

`COc1cccc(C(=O)NC23C(=O)c4c(N)cccc4C2(O)Oc2cc(C(C)C)ccc23)c1` (centres unmarked) [Example 154, N-(1-Amino-4b-hydroxy-7-isopropyl-10-oxo-9b,10-dihydro-4bH-indeno[1,2-b]benzofuran-9b-yl)-3-methoxybenzamide]: the EC50 with Poliovirus 3 is < 0.01 µg/mL. The CC50 in “in vitro” is 22.7 µg/mL (≈ 51.1 µM); in “in vitro” (Picorana CC50), 46.2 µg/mL (≈ 104 µM).

Take `CC(C)c1ccc2c(c1)OC1(O)c3cccc(N)c3C(=O)C21NC(=O)c1ncccc1Cl` (centres unmarked) [Example 246, N-(1-Amino-4b-hydroxy-7-isopropyl-10-oxo-9b,10-dihydro-4bH-benzo[d]indeno[1,2-b]furan-9b-yl)-3-chloropicolinamide]: the EC50 in the series on Poliovirus 3 is < 0.01 µg/mL. Besides, the CC50 was > 10 µg/mL in “in vitro” and 9.84 µg/mL (≈ 21.9 µM) in “in vitro” (Picorana CC50).

With `Cc1nn(C)c2ncc(C(=O)NC34C(=O)c5c(N)cccc5C3(O)Oc3cc(C(C)C)ccc34)cc12` (centres unmarked) [Example 271, N-(1-Amino-4b-hydroxy-7-isopropyl-10-oxo-9b,10-dihydro-4bH-indeno[1,2-b]benzofuran-9b-yl)-1,3-dimethyl-1H-pyrazolo[3,4-b]pyridine-5-carboxamide], the EC50 in the series with Poliovirus 3 was < 0.01 µg/mL. For the same compound, the CC50 in “in vitro” is > 10 µg/mL.

For the compound `CC(C)c1ccc2c(c1)OC1(O)c3ccccc3C(=O)C21NC(=O)c1cccs1` (centres unmarked) [Example 161, N-(4b-Hydroxy-7-isopropyl-10-oxo-9b,10-dihydro-4bH-indeno[1,2-b]benzofuran-9b-yl)thiophene-2-carboxamide], the EC50 in the series with Poliovirus 3 is < 0.01 µg/mL. In addition, the CC50 in the series “in vitro” turned out to be 17.9 µg/mL (≈ 44.1 µM); in the series “in vitro” (Picorana CC50), 40.7 µg/mL (≈ 100 µM).

The values above are taken from patent US9890133B2 (priority 2011, dated 2018).
